How the values were obtained:
[1] = Inhibition of rat brain aSMase using HMU-PC as substrate incubated for 3 hrs by fluorescence plate reader assay; format: tissue-based
[2] = Inhibition of rat brain aSMase using HMU-PC as substrate incubated for 3 hrs by fluorescence based analysis; format: tissue-based
[3] = Inhibition of CerS human HCT-116 cells microsomal fraction assessed as reduction in C18 dihydroceramide synthesis by LC-MS/MS analysis; format: microsomes, Microsome
[4] = Inhibition of CerS human HCT-116 cells microsomal fraction assessed as reduction in C16 dihydroceramide synthesis by LC-MS/MS analysis; format: microsomes, Microsome
[5] = Inhibition of CerS human HCT-116 cells microsomal fraction assessed as reduction in C24 dihydroceramide synthesis by LC-MS/MS analysis; format: microsomes, Microsome
[6] = Inhibition of CerS human HCT-116 cells microsomal fraction assessed as reduction in C24:1 dihydroceramide synthesis by LC-MS/MS analysis; format: microsomes, Microsome
[7] = target: T1, Sphingomyelin phosphodiesterase 2 (Rattus norvegicus) (UniProt Q9ET64); assay: Inhibition of rat brain microsomes nSMase at 350 uM measured after 15 mins relative to control; conditions: Microsome
T1 sequence (whole entry): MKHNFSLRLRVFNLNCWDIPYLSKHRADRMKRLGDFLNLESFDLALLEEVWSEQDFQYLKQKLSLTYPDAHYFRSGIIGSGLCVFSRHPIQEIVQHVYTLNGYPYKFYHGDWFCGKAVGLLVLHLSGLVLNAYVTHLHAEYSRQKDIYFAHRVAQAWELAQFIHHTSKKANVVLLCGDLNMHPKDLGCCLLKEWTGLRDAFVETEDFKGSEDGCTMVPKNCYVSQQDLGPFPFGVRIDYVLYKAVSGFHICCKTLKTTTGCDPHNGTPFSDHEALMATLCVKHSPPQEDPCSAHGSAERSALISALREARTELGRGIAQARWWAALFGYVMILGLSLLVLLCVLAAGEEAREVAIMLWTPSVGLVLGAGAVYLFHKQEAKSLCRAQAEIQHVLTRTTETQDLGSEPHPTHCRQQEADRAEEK

[8] = target: T1, Sphingomyelin phosphodiesterase 2 (Rattus norvegicus); assay: Inhibition of rat brain microsomes nSMase at 100 uM relative to control; conditions: Microsome
[9] = target: T2, Sphingomyelin phosphodiesterase 2 (Mus musculus, UniProt O70572); assay: Inhibition of mouse nSMase
T2 sequence (O70572 whole entry): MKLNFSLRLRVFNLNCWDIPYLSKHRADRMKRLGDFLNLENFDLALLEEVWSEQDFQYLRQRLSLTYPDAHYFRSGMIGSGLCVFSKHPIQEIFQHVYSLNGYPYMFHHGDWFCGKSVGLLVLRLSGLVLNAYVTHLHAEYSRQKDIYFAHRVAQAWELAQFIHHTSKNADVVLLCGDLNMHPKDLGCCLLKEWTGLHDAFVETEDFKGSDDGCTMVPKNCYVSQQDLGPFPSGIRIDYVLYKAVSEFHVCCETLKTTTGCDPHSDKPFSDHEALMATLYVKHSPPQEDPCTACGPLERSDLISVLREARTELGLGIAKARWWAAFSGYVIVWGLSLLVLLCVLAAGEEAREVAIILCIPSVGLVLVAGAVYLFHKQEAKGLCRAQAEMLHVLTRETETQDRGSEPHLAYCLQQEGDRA

[10] = target: T1, Sphingomyelin phosphodiesterase 2 (Rattus norvegicus); assay: Inhibition of rat brain microsomes nSMase at 100 uM incubated for 60 mins relative to control; conditions: Microsome
[11] = organism: Bos taurus; assay: Inhibition of bovine brain microsomes nSMase measured after 60 mins relative to control; conditions: Microsome
[12] = Inhibition of bovine brain microsomes nSMase assessed as inhibition constant; set-up: species or system Bos taurus, Microsome
[13] = target: T1, Sphingomyelin phosphodiesterase 2 (Rattus norvegicus); assay: Inhibition of rat brain microsomes nSMase at 200 uM measured after 90 mins relative to control; conditions: Microsome
[14] = Inhibition of rat brain aSMase; format: tissue-based
[15] = target: T3, Sphingomyelinase C (Bacillus cereus, UniProt P11889); assay: Inhibition of Bacillus cereus SMaseC
T3 sequence (P11889 whole entry): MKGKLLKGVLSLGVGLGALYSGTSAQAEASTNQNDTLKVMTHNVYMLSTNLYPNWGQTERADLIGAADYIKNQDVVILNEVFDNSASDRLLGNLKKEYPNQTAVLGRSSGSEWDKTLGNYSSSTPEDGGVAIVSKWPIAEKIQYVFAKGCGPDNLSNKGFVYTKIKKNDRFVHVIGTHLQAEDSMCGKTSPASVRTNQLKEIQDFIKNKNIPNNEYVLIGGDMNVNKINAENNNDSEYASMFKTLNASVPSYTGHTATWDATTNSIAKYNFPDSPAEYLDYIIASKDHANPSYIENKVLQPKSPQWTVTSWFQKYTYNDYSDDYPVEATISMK

[16] = target: T4, Ceramide synthase 1 (Homo sapiens) (UniProt P27544); assay: Inhibition of CerS1 (unknown origin) at 10 uM relative to control
T4 sequence (whole entry): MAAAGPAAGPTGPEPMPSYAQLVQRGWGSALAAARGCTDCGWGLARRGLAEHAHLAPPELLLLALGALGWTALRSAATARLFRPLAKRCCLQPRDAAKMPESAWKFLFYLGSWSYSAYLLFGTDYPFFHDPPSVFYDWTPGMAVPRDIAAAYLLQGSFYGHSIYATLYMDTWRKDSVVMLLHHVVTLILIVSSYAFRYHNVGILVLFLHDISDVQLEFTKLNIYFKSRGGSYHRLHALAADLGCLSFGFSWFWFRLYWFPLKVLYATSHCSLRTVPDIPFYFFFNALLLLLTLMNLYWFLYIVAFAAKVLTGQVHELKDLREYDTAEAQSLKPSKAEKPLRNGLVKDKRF

[17] = target: T5, Sphingomyelin phosphodiesterase 2 (Rattus norvegicus, UniProt Q9ET64); assay: Inhibition of rat brain microsomes nSMase; set-up: species or system Microsome
T5 sequence (Q9ET64 whole entry): T1 sequence (whole entry)

[18] = target: T6, Sphingolipid delta(4)-desaturase DES1 (Homo sapiens, UniProt O15121); assay: Inhibition of DES1 in human HGC-27 cell lysates; format: subcellular
T6 sequence (O15121 whole entry): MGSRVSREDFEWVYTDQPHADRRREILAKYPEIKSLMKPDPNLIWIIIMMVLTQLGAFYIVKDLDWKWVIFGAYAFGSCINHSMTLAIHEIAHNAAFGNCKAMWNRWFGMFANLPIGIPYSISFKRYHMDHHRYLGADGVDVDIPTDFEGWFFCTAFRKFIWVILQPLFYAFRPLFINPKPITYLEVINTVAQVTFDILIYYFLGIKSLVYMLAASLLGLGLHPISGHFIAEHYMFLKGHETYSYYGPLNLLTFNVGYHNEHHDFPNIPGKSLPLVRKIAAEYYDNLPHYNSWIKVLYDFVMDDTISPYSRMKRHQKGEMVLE

[19] = target: T7, Sphingolipid delta(4)-desaturase DES1 (Rattus norvegicus, UniProt Q5XIF5); assay: Inhibition of rat liver microsome DES1 incubated for 20 min in presence of NADH by liquid scintillation counter method; format: microsomes
T7 sequence (Q5XIF5 whole entry): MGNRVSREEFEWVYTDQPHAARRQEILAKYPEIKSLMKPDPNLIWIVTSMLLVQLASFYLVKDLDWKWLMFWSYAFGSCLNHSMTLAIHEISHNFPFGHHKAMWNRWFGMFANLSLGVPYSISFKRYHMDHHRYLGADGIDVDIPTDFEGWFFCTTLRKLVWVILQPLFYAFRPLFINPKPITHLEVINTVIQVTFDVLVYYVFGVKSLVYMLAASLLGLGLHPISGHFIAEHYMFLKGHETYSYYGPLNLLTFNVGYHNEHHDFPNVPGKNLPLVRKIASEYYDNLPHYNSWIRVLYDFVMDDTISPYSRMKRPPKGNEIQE

[20] = target: Ceramide synthase 6 (Homo sapiens) (UniProt Q6ZMG9); assay: Inhibition of CerS6 (unknown origin) at 10 uM relative to control
Ceramide synthase 6 (Homo sapiens), sequence (Q6ZMG9 whole entry): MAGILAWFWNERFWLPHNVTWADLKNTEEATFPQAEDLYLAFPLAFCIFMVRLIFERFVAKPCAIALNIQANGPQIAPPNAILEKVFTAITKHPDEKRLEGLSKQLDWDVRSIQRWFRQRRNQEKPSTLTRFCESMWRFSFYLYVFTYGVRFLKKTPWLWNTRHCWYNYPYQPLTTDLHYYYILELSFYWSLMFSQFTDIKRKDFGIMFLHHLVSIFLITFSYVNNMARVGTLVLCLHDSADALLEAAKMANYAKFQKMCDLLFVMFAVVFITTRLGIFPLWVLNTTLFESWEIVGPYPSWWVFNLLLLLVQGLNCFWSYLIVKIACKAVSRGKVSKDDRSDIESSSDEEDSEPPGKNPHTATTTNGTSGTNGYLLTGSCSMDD

[21] = test system: HEK293; assay: Competitive inhibition of CerS in HEK293 cells at 10 uM relative to control; format: cell-based; conditions: Homo sapiens
[22] = target: Ceramide synthase 5 (Homo sapiens) (UniProt Q8N5B7); assay: Inhibition of CerS5 (unknown origin) at 10 uM relative to control
Ceramide synthase 5 (Homo sapiens), sequence (Q8N5B7 whole entry): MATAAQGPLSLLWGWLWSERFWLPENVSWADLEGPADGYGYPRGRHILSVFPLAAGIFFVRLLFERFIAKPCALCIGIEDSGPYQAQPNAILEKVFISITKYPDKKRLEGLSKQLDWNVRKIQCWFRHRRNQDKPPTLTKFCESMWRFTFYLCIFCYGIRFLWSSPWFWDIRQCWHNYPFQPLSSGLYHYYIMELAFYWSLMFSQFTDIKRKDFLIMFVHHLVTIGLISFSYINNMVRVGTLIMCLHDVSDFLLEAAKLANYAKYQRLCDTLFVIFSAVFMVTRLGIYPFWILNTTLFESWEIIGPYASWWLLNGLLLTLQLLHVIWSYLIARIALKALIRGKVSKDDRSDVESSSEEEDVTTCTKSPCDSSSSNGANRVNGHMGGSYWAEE

[23] = Inhibition of bovine brain microsomes nSMase; set-up: species or system Bos taurus, Microsome

## CCCCCCCCCC(O)(P(=O)(O)O)P(=O)(O)O
[1]
  IC50: 80 nM

## COS(=O)(=O)O[C@@H]1[C@H](O)[C@H](OP(=O)(O)O)[C@@H](O)[C@H](OP(=O)(O)O)[C@H]1O
[2]
  IC50: > 100 µM

## CCCCCCCOc1ccc(CCC(CO)(CO)NC(=O)CCCc2ccccc2)cc1
[3]
  IC50: 26.9 µM
[4]
  IC50: 50.4 µM
[5]
  IC50: 81.3 µM
[6]
  IC50: 61.3 µM

## C/C=C/C=C/C(=O)N[C@@H](CO)[C@H]1CC(CCCCCC)C(=O)O1 (some centres not stated)
[7]
  inhibition: 90%

## COc1c(O)c(C)c(C/C=C(\C)CC/C=C(\C)CC/C=C(\C)CC/C=C(\C)CC/C=C(\C)CCC=C(C)C)c(O)c1OC
[8]
  inhibition: > 90%

## S=c1[nH]nc(Nc2ccc(Cl)cc2)n1-c1ccc(Cl)cc1
[9]
  IC50: 2400 nM

## CC(C)C/C=C/C=C/C(=O)NC1=CC(=O)[C@H]2O[C@H]2C1=O
[8]
  inhibition: 90%
[10]
  inhibition: 98%

## S=c1[nH]nc(-c2cccs2)n1CC1CCCCC1
[9]
  IC50: 2500 nM

## CCCCCCOS(=O)(=O)O[C@@H]1[C@H](O)[C@H](OP(=O)(O)O)[C@@H](O)[C@H](OP(=O)(O)O)[C@H]1O
[2]
  IC50: 43 µM

## CCCCCCCCCC(N)(P(=O)(O)O)P(=O)(O)O
[1]
  IC50: 20 nM

## CCCCCCCCCCCCCCNC(=S)N[C@H](CO)[C@H](O)c1ccc([N+](=O)[O-])cc1
[11]
  inhibition: 90%
[12]
  Ki: 2500 nM

## CCOc1ccc(OCC)c(NC(=O)C2=C(C)NC(=S)NC2c2ccc(N(CC)CC)cc2)c1 (configuration not stated)
[9]
  IC50: 860 nM

## CCCCCCCCCC(=O)N[C@H](Cc1ccccc1)C(=O)NC1=CC2(CO2)C(=O)C=C1 (some centres not stated)
[13]
  inhibition: 23%

## CCOS(=O)(=O)O[C@@H]1[C@H](O)[C@H](OP(=O)(O)O)[C@@H](O)[C@H](OP(=O)(O)O)[C@H]1O
[2]
  IC50: > 100 µM

## CCN(CC)c1ccc(C2NC(=S)NC(C)=C2C(=O)Nc2ccccc2OC)cc1 (configuration not stated)
[9]
  IC50: 900 nM

## CCCCCCCCCC(=O)N[C@H](C)C(=O)NC1=CC2(CO2)C(=O)C=C1 (some centres not stated)
[13]
  inhibition: 33%

## Cc1csc(-c2c(C(F)(F)F)oc3cc(O)c(C)cc3c2=O)n1
[14]
  IC50: 9.5 µM

## CCCCCCC[C@@H](O)[C@H](CCP(=O)([O-])OCC[N+](C)(C)C)NC(=O)CCCCC
[15]
  IC50: 120 µM

## CCCCCCCCc1ccc(CCC(CO)(CO)NCC)cc1
[3]
  IC50: 50.7 µM
[4]
  IC50: 25.7 µM
[5]
  IC50: 60.6 µM

## C/C=C/C=C/C(=O)N[C@@H](CO)[C@H]1C=C(CCCCCC)C(=O)O1
[11]
  inhibition: 90%
[7]
  inhibition: 50%

## COc1ccc2oc(-c3cc(Br)cc4c3OCOC4)c(N)c(=O)c2c1
[14]
  IC50: 3.1 µM

## CCCCCCCCCCCC(O)(P(=O)(O)O)P(=O)(O)O
[1]
  IC50: 70 nM

## CCCCCCCCCCCCCCCCC(=O)NC(CO)(CO)CCc1ccc(OCCCCCCC)cc1
[5]
  IC50: 63.6 µM

## C[C@@](N)(CO)CCc1ccc(OCc2ccccc2)cc1
[16]
  inhibition: 76%

## CCCCCCCCCC(=O)N[C@H](CO)C(=O)NC1=CC2(CO2)C(=O)C=C1 (some centres not stated)
[13]
  inhibition: 80%

## CC(C)(O)/C=C/C1=CC(=O)C=CC1=O
[17]
  IC50: 4.2 µM

## CCCCCCC[C@@H](O)[C@H](CNP(=O)([O-])OCC[N+](C)(C)C)NC(=O)CCCCC
[15]
  IC50: 53 µM

## CCCCCCC[C@@H](O)[C@H](CC(F)(F)P(=O)([O-])OCC[N+](C)(C)C)NC(=O)CCCCC
[15]
  IC50: 57 µM

## CC(C)(O)C(O)Cc1cc(O)ccc1O (configuration not stated)
[17]
  IC50: 34 µM

## CCCCCCCCCCC/C=C/CC[C@@H](O)[C@H](CO)NC(=O)CCCCCCC
[18]
  IC50: 155 nM

## CCCCCCCCCCCC(=O)NC1=CC(=O)[C@H]2O[C@H]2C1=O
[8]
  inhibition: 10%
[10]
  inhibition: 88%

## N=C(N)N/N=C/c1cc2ccccc2[nH]1
[17]
  IC50: 5 µM

## CCCCCCCCCCCCNC(=S)N[C@H](CO)[C@H](O)c1ccc([N+](=O)[O-])cc1
[12]
  Ki: 1700 nM

## CC1=C(/C=C/C(C)=C/C=C/C(C)=C/C(=O)Nc2ccc(O)cc2)C(C)(C)CCC1=O
[19]
  IC50: 1680 nM

## CCCCCCCC(N)(P(=O)(O)O)P(=O)(O)O
[1]
  IC50: 40 nM

## COC(C)(C)/C=C/c1cc(O)ccc1O
[17]
  IC50: 16 µM

## CCCCCCCOc1ccc(CC[C@](C)(N)CO)cc1
[20]
  inhibition: 50%
[21]
  inhibition: 50%
[22]
  inhibition: 50%
[16]
  inhibition: > 90%

## CCCCOc1ccc(CC[C@](C)(N)CO)cc1
[16]
  inhibition: 16%

## CCCCCCC[C@@H](O)[C@H](CCCP(=O)([O-])OCC[N+](C)(C)C)NC(=O)CCCCC
[15]
  IC50: 78 µM

## CCCCCCCCCCCCCCCC(=O)N[C@@H](CC(F)(F)P(=O)(O)O)[C@H](O)c1ccccc1
[23]
  IC50: 181 µM

## CCCCCCCCC/C=N/NC(=N)N
[17]
  IC50: 8.2 µM

## CCCCCCCOc1ccc(CCC(CO)(CO)N(C)C)cc1
[3]
  IC50: 21.4 µM
[6]
  IC50: 28.7 µM

## CC(C)(O)/C=C/c1cc(O)ccc1O
[17]
  IC50: 17 µM

## CCCCCCCCOS(=O)(=O)O[C@@H]1[C@H](O)[C@H](OP(=O)(O)O)[C@@H](O)[C@H](OP(=O)(O)O)[C@H]1O
[2]
  IC50: 4 µM

Reference: ChEMBL document CHEMBL5226284, “Small Molecule Inhibitors Targeting Biosynthesis of Ceramide, the Central Hub of the Sphingolipid Network” (J Med Chem, 2021)
